Patent US8999956B2, “N-[(het)arylalkyl)] pyrazole(thio)carboxamides and their heterosubstituted analogues” (Bayer Intellectual Property GmbH, priority 2010, dated 2015)

How the values were obtained:
Pyrenophora teres = test: In vivo preventive test on Pyrenophora teres (barley); settings: 500 ppm of active ingredient, evaluated 7-9 days after inoculation
Method in brief: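 Preventive test: young barley plants received a water-diluted spray of compound formulated with DMF solvent plus alkylaryl polyglycol ether emulsifier, at the stated rate. Inoculation with an aqueous spore suspension of Pyrenophora teres followed one day after spraying.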

Alternaria solani = test: In vivo preventive test on Alternaria solani (tomato); settings: 500 ppm of active ingredient, evaluated 7 days after inoculation
Method in brief: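 Preventive set-up: Alternaria solani spores, as aqueous suspension, applied to young plants one day after spraying. Spray contained active compound formulated with N,N-dimethylformamide and emulsifier, water-diluted to the desired application rate.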

[1] = log P by HPLC on reversed-phase column (EEC Directive 79/831 Annex V.A8); type: physicochemical
Protocol: In table 1, the log P values were determined in accordance with EEC Directive 79/831 Annex V.A8 by HPLC (High Performance Liquid Chromatography) on a reversed-phase column (C18), using the method described below: Temperature: 40° C.; […]

Leptosphaeria nodorum = test: In vivo preventive test on Leptosphaeria nodorum (wheat); settings: 500 ppm of active ingredient, evaluated 7-9 days after inoculation
Protocol: Solvent: 49 parts by weight of N,N-dimethylacetamide Emulsifier: 1 part by weight of alkylaryl polyglycol ether To produce a suitable preparation of active compound, 1 part by weight of active compound is mixed with the stated amounts of solvent and emulsifier, and the concentrate is diluted with water to the desired concentration. To test for preventive activity, young plants are sprayed with a preparation of active compound at the stated rate of application. One day after this treatment, the plants are inoculated with an aqueous spore suspension of Leptosphaeria nodorum.

[2] = system: aflatoxines produced by Aspergillus parasiticus; test: microbe, parasite or virus in culture; type: cell-based
Puccinia triticina = test: In vivo preventive test on Puccinia triticina (wheat); settings: Table K, 500 ppm of active ingredient, evaluated 8 days after inoculation
Aspergillus parasiticus = test: microbe, parasite or virus in culture; type: cell-based
Sphaerotheca fuliginea = test: In vivo preventive test on Sphaerotheca fuliginea (cucumber); settings: 500 ppm of active ingredient, evaluated 7 days after inoculation
Protocol: Solvent: 49 parts by weight of N,N-dimethylformamide Emulsifier: 1 part by weight of Alkylarylpolyglycolether To produce a suitable preparation of active compound, 1 part by weight of active compound is mixed with the stated amounts of solvent and emulsifier, and the concentrate is diluted with water to the desired concentration. To test for preventive activity, young plants are sprayed with the preparation of active compound at the stated rate of application. One day after this treatment, the plants are inoculated with an aqueous spore suspension of Sphaerotheca fuliginea. Then the plants are placed in a greenhouse at approximately 23° C. and a relative atmospheric humidity of approximately 70%.

| Structure (SMILES) | Efficacy (Pyrenophora teres) [%] | Efficacy (Alternaria solani) [%] | logP [1] | Efficacy (Leptosphaeria nodorum) [%] | % Inhibition of Aflatoxin at 50 μM [2] [%] | Efficacy (Puccinia triticina) [%] | % Inhibition of fungal growth at 50 μM (Aspergillus parasiticus) [%] | Efficacy (Sphaerotheca fuliginea) [%] | Efficacy (Leptosphaeria nodorum; listed as example E-12 disclosed in patent application WO-2008/101976) |
| --- | --- | --- | --- | --- | --- | --- | --- | --- | --- |
| CC(CNC(=O)c1c(C(F)F)nn(C)c1F)Cc1c(F)cccc1F (stereo not drawn) [Example 157] | 100 | 80 | 3.02 | 80 | – | – | – | – | – |
| Cc1cccc(C)c1OCC(C)N(C(=O)c1c(C(F)F)nn(C)c1F)C1CC1 (stereo not drawn) [Example 155] | 100 | – | 3.94 | – | 100 | 90 | 100 | – | – |
| Cn1nc(C(F)F)c(C(=O)N(C[Si](C)(C)Cc2ccccc2Cl)C2CC2)c1F [Example 295] | 100 | 100 | 4.41 | 100 | 100 | – | 100 | – | – |
| Cn1nc(C(F)F)c(C(=O)N(C[Si](C)(C)Cc2ccccc2Cl)C2CC2)c1Cl [Example 294] | 95 | 95 | 4.56 | 70 | 100 | – | 84 | – | – |
| CC1CCCC(C)(C)C1CCC(C)N(C(=O)c1c(C(F)F)nn(C)c1F)C1CC1 (stereo not drawn) [Example 367] | 100 | 90 | 5.81 | – | 100 | – | 100 | 100 | – |
| Cn1nc(C(F)F)c(C(=S)N(C[Si](C)(C)Cc2ccc(Cl)cc2Cl)C2CC2)c1F [Example 299] | 100 | 95 | 5.57 | 95 | – | – | – | – | – |
| CC(C)CCC1CCCC1NC(=O)c1c(C(F)F)nn(C)c1Cl (stereo not drawn) [Example 309] | 100 | 100 | 4.20 | – | 100 | – | 82 | 98 | – |
| Cn1nc(C(F)F)c(C(=O)NC2CCCCC2Oc2ccccc2)c1F (stereo not drawn) [Example 245] | 78 | 90 | 3.52 | 90 | – | 70 | – | – | – |
| CC(N(C(=O)c1c(C(F)F)nn(C)c1Cl)C1CC1)C(C)(C)Cc1ccc(Cl)cc1Cl (stereo not drawn) [Example 182] | 100 | 95 | 5.39 | – | 100 | – | 90 | 75 | – |
| CC(C)CC1CCCCC1NC(=O)c1c(C(F)F)nn(C)c1F (stereo not drawn) [Example 340] | 100 | 100 | 3.94 | – | 100 | – | 95 | 90 | – |
| CC1CCCC(C)(C)C1CCC(C)N(C(=O)c1c(C(F)F)nn(C)c1Cl)C1CC1 (stereo not drawn) [Example 368] | 95 | 80 | 6.07 | – | 100 | – | 93 | 93 | – |
| CC(CCc1cc(Cl)ccc1Cl)NC(=O)c1c(C(F)F)nn(C)c1F (stereo not drawn) [Example 172] | 100 | 100 | 3.68 | – | 100 | – | 100 | 93 | – |
| CCC(CCc1sccc1Br)NC(=O)c1c(C(F)F)nn(C)c1F (stereo not drawn) [Example 89] | 100 | 80 | 3.46 | – | 100 | – | 89 | 88 | – |
| CC(CCc1c(Cl)cccc1Cl)NC(=O)c1c(C(F)F)nn(C)c1F (stereo not drawn) [Example 163] | 100 | 100 | 3.59 | – | 100 | 80 | 100 | 100 | – |
| Cn1nc(C(F)F)c(C(=O)N(C[Si](C)(C)Cc2cc(Cl)cc(Cl)c2)C2CC2)c1F [Example 293] | – | – | 4.98 | 94 | 100 | – | 100 | – | – |
| CC(CCc1ccc(C(F)(F)F)cc1)NC(=O)c1c(C(F)F)nn(C)c1F (stereo not drawn) [Example 71] | 100 | 95 | 3.46 | – | 100 | – | 83 | 95 | – |

| Structure (SMILES) | Efficacy (Pyrenophora teres) [%] | Efficacy (Alternaria solani) [%] | logP [1] | Efficacy (Leptosphaeria nodorum) [%] | % Inhibition of Aflatoxin at 50 μM [2] [%] | Efficacy (Puccinia triticina) [%] | % Inhibition of fungal growth at 50 μM (Aspergillus parasiticus) [%] | Efficacy (Sphaerotheca fuliginea) [%] | Efficacy (Leptosphaeria nodorum; listed as example E-12 disclosed in patent application WO-2008/101976) |
| --- | --- | --- | --- | --- | --- | --- | --- | --- | --- |
| Cc1nn(C)c(F)c1C(=O)N(C(C)CCc1ccccc1C(F)(F)F)C1CC1 (stereo not drawn) [E-12 from WO-2008/101976, N-cyclopropyl-5-fluoro-1,3-dimethyl-N-{4-[2-(trifluoromethyl)phenyl]butan-2-yl}-1H-pyrazole-4-carboxamide, reference compound] | – | – | – | 10 | – | – | – | – | less than 10% |
| CN(CCCc1cc(Cl)ccc1Cl)C(=O)c1c(C(F)F)nn(C)c1F [Example 166] | 100 | 100 | 3.48 | – | 100 | 78 | 88 | – | – |
| CC(CCc1ccc(C(F)(F)F)cc1)NC(=O)c1c(C(F)F)nn(C)c1Cl (stereo not drawn) [Example 70] | 100 | 95 | 3.63 | – | 97 | – | 78 | 75 | – |
| Cn1nc(C(F)F)c(C(=O)N(C[Si](C)(C)Cc2ccccc2)C2CC2)c1Cl [Example 287] | 100 | 95 | 4.20 | 95 | – | – | – | – | – |
| CC(CCc1ccccc1Cl)NC(=O)c1c(C(F)F)nn(C)c1F (racemic) [Example 144] | 100 | 100 | 3.21 | – | 100 | – | 94 | 90 | – |
| Cn1nc(C(F)F)c(C(=O)NC(C)(C)CCc2ccc(Cl)cc2Cl)c1F [Example 196] | 100 | 95 | 4.39 | – | 100 | – | 91 | 75 | – |
| Cn1nc(C(F)F)c(C(=O)N(C2CC2)C2CCCCC2C(C)(C)C)c1F (stereo not drawn) [Example 350] | 100 | 90 | 4.71 | – | 100 | – | 100 | 100 | – |
| Cc1cccc(C)c1CC(C)CNC(=O)c1c(C(F)F)nn(C)c1F (racemic) [Example 150] | 100 | 80 | 3.44 | – | 100 | – | 82 | 83 | – |
| CC(CCc1ccc(Cl)c(Cl)c1)NC(=O)c1c(C(F)F)nn(C)c1Cl (racemic) [Example 131] | 100 | 95 | 3.85 | 80 | – | – | – | – | – |
| Cc1ccnc(OCC(C)NC(=O)c2c(C(F)F)nn(C)c2Cl)c1 (stereo not drawn) [Example 37] | 100 | 80 | 2.13 | 90 | – | – | – | – | – |
| CN(CCCc1cc(Cl)ccc1Cl)C(=S)c1c(C(F)F)nn(C)c1F [Example 168] | 100 | 90 | 4.11 | 90 | – | – | – | – | – |
| CCC1(CNC(=O)c2c(C(F)F)nn(C)c2Cl)CCCCC1 [Example 365] | – | – | 3.78 | 90 | – | – | – | – | – |
| Cc1cccc(C)c1CCC(C)NC(=O)c1c(C(F)F)nn(C)c1F (stereo not drawn) [Example 154] | 100 | 100 | 3.41 | – | 100 | 70 | 100 | 100 | – |
| Cn1nc(C(F)F)c(C(=O)N(C[Si](C)(C)Cc2cccc(Cl)c2)C2CC2)c1Cl [Example 290] | 100 | 95 | 4.59 | 80 | 82 | – | 72 | – | – |
| Cn1nc(C(F)F)c(C(=O)N(CCOc2ccc(-c3ccccc3)cc2)C2CC2)c1F [Example 29] | 100 | 80 | 3.90 | 80 | – | – | – | – | – |
| Cc1cccc(C)c1CCC(C)NC(=O)c1c(C(F)F)nn(C)c1Cl (stereo not drawn) [Example 153] | 100 | – | 3.61 | – | 100 | 95 | 99 | 100 | – |
